Experimental findings from patent publication US12358915B2, “METTL3 inhibitory compounds” (STORM THERAPEUTICS LTD., priority 2019, dated 2025) are described below.

The target in experiment [1] is T1, METTL3/14 (Homo sapiens, UniProt Q86U44).
T1 construct: The enzyme used was full-length his-tagged METTL3; His; made in house
The experiment in a line: METTL3/14 methyltransferase assay (METTL3_14 RFMS, RapidFire mass spectrometry).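 Note: recombinant His-tagged METTL3 with FLAG-tagged METTL14 from baculovirus, SAH product quantified by mass spectrometry against isotope-labelled internal standards, 60 min at room temperature, scaled between no-RNA and DMSO-only wells.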 The experiment is classed as biochemical. The conditions noted are these: read-out: METTL3_14 RFMS IC50.
Protocol: The enzyme used was full-length his-tagged METTL3 co-expressed with full length FLAG-tagged METTL14 in a baculovirus expression system. […] After termination, plates were sealed, centrifuged and stored at 4° C. until analysis. […] Mass Spectrometry Analysis RNA methyltransferase activity was measured label free using the RapidFireTM mass spectrometry (RF/MS) platform. Stopped and stable assay plates were analyzed on the Agilent RF300 integrated autosampler/solid-phase extraction (SPE) system coupled to an ABSciex 4000 mass spectrometer for the generation of the product S-adenosyl homocysteine (SAH) and normalized to the ratio of signal of the two internal product standards, respectively. Solvent A was water containing 0.1% (v/v) TCA. Solvent B was acetonitrile/0.1% ammonium acetate (8:2, v/v). More specifically, plates were centrifuged at 4350 rpm for 10 min, samples were aspirated under vacuum for 600 ms, then loaded onto a C18 solid-phase extraction cartridge and washed for 3 s with solvent A at a flow rate of 1.5 mL/min. Retained product and internal standards were eluted with solvent B at a flow rate of 1 mL/min for 3 s and finally the cartridge was reequilibrated with solvent A for 500 ms.

The subject of experiment [2] is MOLM-13 cells. The experiment in a line: MOLM13 CTG - analysis of cell proliferation (Cell Titre Glo). It is filed as cell-based. The conditions noted are these: Homo sapiens, geometric mean, read-out: CTG MOLM13 cells IC50 GEOMEAN.
Protocol: MOLM-13 or MOLM-14 cells were plated, in suspension, in 24 well tissue culture plates at final concentration of 200,000/ml, with or without 50 ng/ml IFNγ. […] Cells were incubated for 4 days at 37° C. at which point 600 μl of cell suspension was removed for Mass spectrometry analysis of m6A. 600 μl of fresh media containing the appropriate concentration of METTL3 inhibitor/IFNγ was added to remaining cell suspensions. Cells where then cultured for a further 7 days, cell suspension was sampled for analysis of proliferation and Cell surface markers periodically.
At regular time points (4, 5, 6 &7) days cells were mixed to maintain a homogenous cell suspension. 25 μl of this cell suspension was removed and added to a white 384 well plate, 25 μl of Cell Titre Glo reagent (Promega) was added, and incubated for 10 mins at room temperature before measurement of luminescence intensity, as per the manufacturers instructions.
The mark [3] stands for this setting: 5 nM METTL3/14, 0.2 μM RNA substrate, 0.5 μM SAM, lower limit of the assay IC50=5 nM, Compounds 63-265.
[4] abbreviates: 5 nM METTL3/14, 0.2 μM RNA substrate, 0.5 μM SAM, lower limit of the assay IC50=5 nM, Compounds 266-351.

The structures appear in SMILES notation. Like-named read-outs stand apart in the source and are kept apart here.

T1 sequence (Q86U44 whole entry): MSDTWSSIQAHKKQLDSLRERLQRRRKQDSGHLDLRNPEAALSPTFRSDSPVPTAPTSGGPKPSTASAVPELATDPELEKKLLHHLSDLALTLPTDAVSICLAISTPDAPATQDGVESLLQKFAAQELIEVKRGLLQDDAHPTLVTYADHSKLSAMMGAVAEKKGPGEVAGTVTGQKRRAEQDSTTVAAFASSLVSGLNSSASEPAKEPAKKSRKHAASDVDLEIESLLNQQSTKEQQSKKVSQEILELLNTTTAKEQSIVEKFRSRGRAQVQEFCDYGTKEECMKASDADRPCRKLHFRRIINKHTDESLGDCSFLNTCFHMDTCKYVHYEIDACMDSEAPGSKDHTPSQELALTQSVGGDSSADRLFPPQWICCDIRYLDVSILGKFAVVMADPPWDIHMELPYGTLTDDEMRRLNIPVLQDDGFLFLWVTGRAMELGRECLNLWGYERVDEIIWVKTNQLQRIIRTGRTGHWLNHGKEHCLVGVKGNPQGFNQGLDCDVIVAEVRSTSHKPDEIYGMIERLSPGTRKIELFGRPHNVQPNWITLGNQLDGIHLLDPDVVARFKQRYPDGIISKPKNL
T1 sequence (Q9HCE5 whole entry partner): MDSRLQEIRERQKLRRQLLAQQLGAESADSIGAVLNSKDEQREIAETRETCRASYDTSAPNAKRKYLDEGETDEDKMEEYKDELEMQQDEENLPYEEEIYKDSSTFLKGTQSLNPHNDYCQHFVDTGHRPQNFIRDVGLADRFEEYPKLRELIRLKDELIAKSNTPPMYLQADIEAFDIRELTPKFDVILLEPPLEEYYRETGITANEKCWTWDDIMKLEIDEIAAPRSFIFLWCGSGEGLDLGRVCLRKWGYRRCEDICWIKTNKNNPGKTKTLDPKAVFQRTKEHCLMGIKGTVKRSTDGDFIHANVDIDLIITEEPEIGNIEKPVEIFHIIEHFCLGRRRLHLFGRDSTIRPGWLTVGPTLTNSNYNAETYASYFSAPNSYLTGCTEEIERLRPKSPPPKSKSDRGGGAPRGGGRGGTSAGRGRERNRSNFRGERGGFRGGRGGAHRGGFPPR

Consider `c1cc(-c2cn(Cc3cn4cc(CNCC5CCCCC5)ccc4n3)nn2)c2cn[nH]c2c1` [Compound 248, (cyclohexylmethyl)[(2-{[4-(1H-indazol-4-yl)-1H-1,2,3-triazol-1-yl]methyl}imidazo[1,2-a]pyridin-6-yl)methyl]amine], for which the figures for the IC50 in experiment [1] (setting [3]) and in experiment [2] were 12.7 nM and 1930 nM, respectively.
As for `COC1(CNCc2ccc3nc(CNC(=O)c4cc(=O)n5ccccc5n4)cn3c2)CCC1` [Compound 273, N-[[6-[[(1-methoxycyclobutyl)methylamino]methyl]imidazo[1,2-a]pyridin-2-yl]methyl]-4-oxo-pyrido[1,2-a]pyrimidine-2-carboxamide], the IC50 amounted to 27.7 nM in experiment [1] (setting [4]) and 9020 nM in experiment [2].
As to `O=C(NCc1cn2cc(CNCC3CC4(CC4)C3)ccc2n1)c1cc(=O)n2ccccc2n1` [Compound 278, 4-oxo-N-[[6-[(spiro[2.3]hexan-5-ylmethylamino)methyl]imidazo[1,2-a]pyridin-2-yl]methyl]pyrido[1,2-a]pyrimidine-2-carboxamide], the results for the IC50 in experiment [1] (setting [4]) and in experiment [2] were 27.6 nM and at least 30000 nM, respectively.
`O=C(NCc1cn2cc(CNC3CC34CCC4)ccc2n1)c1cc(=O)n2ccccc2n1` (stereo not drawn) [Compound 280, 4-oxo-N-[[6-[(spiro[2.3]hexan-2-ylamino)methyl]imidazo[1,2-a]pyridin-2-yl]methyl]pyrido[1,2-a]pyrimidine-2-carboxamide]: the IC50 in experiment [1] (setting [4]) worked out at 13.1 nM; in experiment [2], 4500 nM.
On to `COC(C)(C)CNCc1ccc2nc(CNC(=O)c3cc(=O)n4ccccc4n3)cn2c1` [Compound 281, N-[[6-[[(2-methoxy-2-methyl-propyl)amino]methyl]imidazo[1,2-a]pyridin-2-yl]methyl]-4-oxo-pyrido[1,2-a]pyrimidine-2-carboxamide], for which the results for the IC50 in experiment [1] (setting [4]) and in experiment [2] were 98.7 nM and at least 30000 nM, respectively.
Consider `CC1(CNCc2ccc3nc(CNC(=O)c4cc(=O)n5ccccc5n4)cn3c2)CCC1` [Compound 282, N-[[6-[[(1-methylcyclobutyl)methylamino]methyl]imidazo[1,2-a]pyridin-2-yl]methyl]-4-oxo-pyrido[1,2-a]pyrimidine-2-carboxamide], for which the IC50 in experiment [1] (setting [4]) came to 10.6 nM; in experiment [2], 3420 nM.
As to `CCCCNCc1ccc2nc(CNC(=O)c3cc(=O)n4ccccc4n3)cn2c1` [Compound 283, N-[[6-(butylaminomethyl)imidazo[1,2-a]pyridin-2-yl]methyl]-4-oxo-pyrido[1,2-a]pyrimidine-2-carboxamide], the IC50 in experiment [1] (setting [4]) was 29.3 nM; in experiment [2] it was 10700 nM.
Taken in the same sequence, the figures for `O=C(NCc1cn2cc(CNCC3(O)CCCC3)ccc2n1)c1cc(=O)n2ccccc2n1` [Compound 284, N-[[6-[[(1-hydroxycyclopentyl)methylamino]methyl]imidazo[1,2-a]pyridin-2-yl]methyl]-4-oxo-pyrido[1,2-a]pyrimidine-2-carboxamide] were 11.5 nM and 7400 nM.
Take `CCC(C)CNCc1ccc2nc(CNC(=O)c3cc(=O)n4ccccc4n3)cn2c1` (stereo not drawn) [Compound 285, N-[[6-[(2-methylbutylamino)methyl]imidazo[1,2-a]pyridin-2-yl]methyl]-4-oxo-pyrido[1,2-a]pyrimidine-2-carboxamide]: the IC50 in experiment [1] (setting [4]) was 15 nM; in experiment [2] it was 7370 nM.
As for `O=C(NCc1cn2cc(CNCCC3CCC3)ccc2n1)c1cc(=O)n2ccccc2n1` [Compound 286, N-[[6-[(2-cyclobutylethylamino)methyl]imidazo[1,2-a]pyridin-2-yl]methyl]-4-oxo-pyrido[1,2-a]pyrimidine-2-carboxamide], the results for the IC50 in experiment [1] (setting [4]) and in experiment [2] were 19.3 nM and 12300 nM, respectively.
As to `CC(C)(O)CNCc1ccc2nc(CNC(=O)c3cc(=O)n4ccccc4n3)cn2c1` [Compound 287, N-[[6-[[(2-hydroxy-2-methyl-propyl)amino]methyl]imidazo[1,2-a]pyridin-2-yl]methyl]-4-oxo-pyrido[1,2-a]pyrimidine-2-carboxamide], the IC50 in experiment [1] (setting [4]) was 69.5 nM; in experiment [2], at least 30000 nM.
On the same counts, the results for `O=C(NCc1cn2cc(CNCC3(O)CCC3)ccc2n1)c1cc(=O)n2ccccc2n1` [Compound 288, N-[[6-[[(1-hydroxycyclobutyl)methylamino]methyl]imidazo[1,2-a]pyridin-2-yl]methyl]-4-oxo-pyrido[1,2-a]pyrimidine-2-carboxamide] are 13.9 nM and 7320 nM.
For `CC1CC(CNCc2ccc3nc(CNC(=O)c4cc(=O)n5ccccc5n4)cn3c2)C1` (stereo not drawn) [Compound 290, N-[[6-[[(3-methylcyclobutyl)methylamino]methyl]imidazo[1,2-a]pyridin-2-yl]methyl]-4-oxo-pyrido[1,2-a]pyrimidine-2-carboxamide], the IC50 was 18 nM in experiment [1] (setting [4]) and 6980 nM in experiment [2].
Taken in the same sequence, the figures for `CCC(C)(C)CNCc1ccc2nc(CNC(=O)c3cc(=O)n4ccccc4n3)cn2c1` [Compound 292, N-[[6-[(2,2-dimethylbutylamino)methyl]imidazo[1,2-a]pyridin-2-yl]methyl]-4-oxo-pyrido[1,2-a]pyrimidine-2-carboxamide] were 20 nM and 7190 nM.
Taken in the same sequence, the figures for `CC[C@H](C)CNCc1ccc2nc(CNC(=O)c3cc(=O)n4ccccc4n3)cn2c1` [Compound 293, N-[[6-[[[(2S)-2-methylbutyl]amino]methyl]imidazo[1,2-a]pyridin-2-yl]methyl]-4-oxo-pyrido[1,2-a]pyrimidine-2-carboxamide] were 12.8 nM and 4720 nM.
With `CC(C)(C)CNCc1ccc2nc(Cn3cc(-c4cc(Br)cc5[nH]ncc45)nn3)cn2c1` [Example 225, [(2-{[4-(6-bromo-1H-indazol-4-yl)-1H-1,2,3-triazol-1-yl]methyl}imidazo[1,2-a]pyridin-6-yl)methyl](2,2-dimethylpropyl)amine], the IC50 came out at 6.69 nM in experiment [1] (setting [3]) and 649 nM in experiment [2].
On the same counts, the results for `Brc1cc(-c2cn(Cc3cn4cc(CNCC5CCCCC5)ccc4n3)nn2)c2cn[nH]c2c1` [Example 226, [(2-{[4-(6-bromo-1H-indazol-4-yl)-1H-1,2,3-triazol-1-yl]methyl}imidazo[1,2-a]pyridin-6-yl)methyl](cyclohexylmethyl)amine] are 8.14 nM and 1480 nM.
On to `CC(C)(C)CNCc1ccc2nc(Cn3cc(-c4cccc5[nH]ncc45)nn3)cn2c1` [Example 250, (2,2-dimethylpropyl)[(2-{[4-(1H-indazol-4-yl)-1H-1,2,3-triazol-1-yl]methyl}imidazo[1,2-a]pyridin-6-yl)methyl]amine], for which the IC50 was 11.3 nM in experiment [1] (setting [3]) and 3000 nM in experiment [2].
Consider `CC1(C)CCN(Cc2ccc3nc(Cn4cc(-c5cccc6[nH]ncc56)nn4)cn3c2)CC1` [Example 251, 4-[1-({6-[(4,4-dimethylpiperidin-1-yl)methyl]imidazo[1,2-a]pyridin-2-yl}methyl)-1H-1,2,3-triazol-4-yl]-1H-indazole], for which the IC50 in experiment [1] (setting [3]) came to 5.76 nM; in experiment [2] it was 727 nM.
Taken in the same sequence, the figures for `FC1(F)CC(CNCc2ccc3nc(Cn4cc(-c5cc(Br)cc6[nH]ncc56)nn4)cn3c2)C1` [Example 252, [(2-{[4-(6-bromo-1H-indazol-4-yl)-1H-1,2,3-triazol-1-yl]methyl}imidazo[1,2-a]pyridin-6-yl)methyl][(3,3-difluorocyclobutyl)methyl]amine] were 8.02 nM and 714 nM.
Regarding `OCc1ccc2nc(Cn3cc(-c4cc(Br)cc5[nH]ncc45)nn3)cn2c1` [Example 253, (2-{[4-(6-bromo-1H-indazol-4-yl)-1H-1,2,3-triazol-1-yl]methyl}imidazo[1,2-a]pyridin-6-yl)methanol], the half-maximal inhibitory concentration (IC50) worked out at 207 nM in experiment [1] (setting [3]) and 2790 nM in experiment [2].
With `CC(C)(C)CNCc1ccc2nc(Cn3cc(-c4ccc5[nH]ncc5c4)nn3)cn2c1` [Example 254, (2,2-dimethylpropyl)[(2-{[4-(1H-indazol-5-yl)-1H-1,2,3-triazol-1-yl]methyl}imidazo[1,2-a]pyridin-6-yl)methyl]amine], the IC50 is 10100 nM in experiment [1] and at least 30000 nM in experiment [2].
In the case of `CC(NCC1CCCCC1)c1ccc2nc(Cn3cc(-c4cccc5[nH]ncc45)nn3)cn2c1` (stereo not drawn) [Example 255], the IC50 in experiment [1] (setting [3]) stood at 25.8 nM; in experiment [2] it was 9610 nM.
With `O=C(NCc1cn2cc(C3COCCN3)ccc2n1)c1cc(=O)n2ccccc2n1` (stereo not drawn) [Example 263, N-{[6-(morpholin-3-yl)imidazo[1,2-a]pyridin-2-yl]methyl}-4-oxo-4H-pyrido[1,2-a]pyrimidine-2-carboxamide], the results for the IC50 in experiment [1] (setting [3]) and in experiment [2] were 2730 nM and 13800 nM, respectively.
Consider `Oc1cc(-c2cn(Cc3cn4cc(CNCC5CCC5)ccc4n3)nn2)c2cn[nH]c2c1` [Example 266, 4-[1-[[6-[(cyclobutylmethylamino)methyl]imidazo[1,2-a]pyridin-2-yl]methyl]triazol-4-yl]-1H-indazol-6-ol], for which the values for the IC50 in experiment [1] and in experiment [2] were at most 4.23 nM and 11100 nM, respectively.
For `Oc1cc(-c2cn(Cc3cn4cc(CNCC5(O)CCC5)ccc4n3)nn2)c2cn[nH]c2c1` [Example 267, 4-[1-[[6-[[(1-hydroxycyclobutyl)methylamino]methyl]imidazo[1,2-a]pyridin-2-yl]methyl]triazol-4-yl]-1H-indazol-6-ol], the IC50 in experiment [1] (setting [4]) was 6.95 nM; in experiment [2], at least 30000 nM.
On the same counts, the results for `COc1ccc2[nH]ncc2c1-c1cn(Cc2cn3cc(CNCC4(O)CCC4)ccc3n2)nn1` [Example 268, 1-[[[2-[[4-(5-methoxy-1H-indazol-4-yl)triazol-1-yl]methyl]imidazo[1,2-a]pyridin-6-yl]methylamino]methyl]cyclobutanol] are 10.6 nM and 5330 nM.
